Values of other authors in patent US20020102237A1, “Compositions and methods for hepatitis treatment” (priority 2000, published 2002).

System: hepatitis C infection

## alpha-interferon
Hepatitis C infection, 3 million units subcutaneously three times weekly for six months
  patients responding with normalization of alanine aminotransferase (ALT): approximately 50%
Hepatitis C infection, after standard six-month therapy
  relapse of responders upon discontinuation of therapy: half of those responding relapse

## interferon
Chronic hepatitis C, interferon with or without Ribavirin
  response rate (long term efficacy): about 25%
